From patent US5939322A, “Human steroid receptor” (Merck & Co., Inc., priority 1996, dated 1999)
Entries after “also recorded” stand apart in the source; their conditions may differ.

Assays:
[1] = system: GR/PPAR; assay: Ligand dependent transcription assay, GR/PPAR chimeric receptor with MMTV-luciferase reporter in COS cells; assay type: cell-based, African green monkey
Method: (§1) Similar hybrid receptors GR/NER, GR/NUC and GR/PPAR, in identical expression plasmid backgrounds were prepared essentially as described for the construction of the GR/mPPAR and GR/NUC chimeric receptors in Schmidt et al., "Identification of a new member of the steroid hormone receptor superfamily that is activated by a peroxisome proliferator and fatty acids," Mol. Endocrinol., 6(10):1634-41, 1992, and in Boie et al., "Enantioselective activation of the peroxisome proliferator-activated receptor", J. Biol. Chem. 269(8):5530-4, 1993.
(§2) Briefly, the amino terminal portion of the mouse glucocorticoid receptor (mGR), that includes the DNA binding domain was fused to the putative ligand binding domains of the nuclear receptor NER, hNUC-I (Schmidt et al., 1992), mPPAR (Issenmann and Green, 1990) to form the respective chimeric receptors GR/NER, GR/NUC and GR/PPAR. The GR/NER chimeric receptor was constructed as described for the GR/NUC and GR/PPAR hybrid receptors (Schmidt et al., 1992; Boie et al). The cDNA sequences coding for amino acids Arg^155 and Glu^156 of the NER receptor were converted to the Xho I restriction site, that was later used for the ligation to the GR cDNA sequences that coded for the DNA binding domain. Thus, converting amino acid residues Arg^155 and Glu^156 of NER receptor to amino acid residues Ser^155 and His^156.
The ligand transcription assay mediated by GR/PPAR in COS cells was performed as described in Example 4. The cells were treated with TOFA and Cerulenin at 0.1, 1, 10 and 100 μM.

[2] = system: GR/NUC; assay: Ligand dependent transcription assay, GR/NUC chimeric receptor with MMTV-luciferase reporter; assay type: cell-based, human; settings: Table 1
Method: as §1, §2

[3] = system: GR/PPAR; assay: Ligand dependent transcription assay, GR/PPAR chimeric receptor with MMTV-luciferase reporter in COS cells; assay type: cell-based, African green monkey; settings: Table 1
[4] = system: SCH 23390 Induced Catalepsy; assay: SCH 23390 (dopamine D1 antagonist) induced catalepsy, bar method; assay type: in vivo; settings: rats; carrier pretreatment, 24 h later SCH23390 0.5 mg/kg
Method: Rats were pretreated with 0.4 mg/kg TOFA or with carrier (S.C.). Twenty-four hours later, the rats were challenged with 0.5 mg/kg SCH23390, a Dopamine D1 antagonist, and the duration of catalepsy was monitored.
Catalepsy was determined by a modification of the Bar method (Undie and Friedman, 1988). A steel bar, 1.1 cm in diameter and 50 cm long, was suspended at a height of 10 cm above the working surface. Three sides of the bench around the bar were walled off with brown cardboard, and the linings on the bench surface were selected to be of the same color with the cardboard walls. The animal's hind limbs were freely placed on the bench, the tail laid out to the back, and the forelimbs placed over the bar. The length of time a rat stayed up on the bar was noted up to a preset cut-off point of 120 s. The time was counted off upon observing any of the following actions: (1) the animal came off, placing its two forepaws on the bench, (2) the animal climbed onto or over the bar with both hind limbs, (3) the animal initiated locomotion along or around the bar. Subsequently, time readings were translated into scores by awarding a score of 1 for each successfully completed 5 s on the bar. […]
Catalepsy scores were analyzed by computer in accordance with the statistical procedures outlined by Winer, B. J.: Statistical principles in experimental design. […]

[5] = system: GR/NER; assay: Ligand dependent transcription assay, GR/NER chimeric receptor with MMTV-luciferase reporter in CV1 cells; assay type: cell-based, African green monkey; settings: for Fold of Stimulation GR/NER, Control: no dopamine
Method: (§3) Transient transfection of COS and CV1 cells was performed as described (Schmidt 1992). Cells were plated (1.5×10^5 in 1 mL) into 12 well dishes in phenol red-free medium supplemented with activated charcoal treated fetal calf serum. The next day 0.12 mL of DNA 10 μg/ml (5 μg receptor DNA and 5 μg reporter plasmid), as a calcium phosphate precipitate, was added to the cells. Ligands were added to the cells 30 minutes after transfection. The next day (18 hours), the cells were washed and fresh ligands added. Twenty-four hours later, cell extracts were prepared and assayed for luciferase enzyme activity using the luciferase assay system (Promega Madison, Wis.). Each transfection was performed in triplicate and the luciferase activity of each sample measured in duplicate using the AutoClinilumat (Berthold Nashua, New Hampshire).

[6] = system: Haloperidol Induced Catalepsy; assay: Haloperidol (dopamine D2 antagonist) induced catalepsy, bar method; assay type: in vivo; settings: rats; TOFA 0.4 mg/kg S.C. 24 h before Haloperidol 0.1 mg/kg
[7] = system: MMTV-luciferase reporter gene; assay: Luciferase expression in cells transfected only with the MMTV-luciferase reporter gene; assay type: cell-based
Method: as §3

[8] = system: promoter of SV40; assay: Luciferase expression from reporter gene under control of the SV40 promoter; assay type: cell-based
[9] = system: PC12 cells; assay: Neurite differentiation of PC12 cells; assay type: cell-based; settings: TOFA alone, without NGF (data not shown)
Method: To further study the influence of TOFA on the nervous system, we tested the effect of TOFA on the differentiation of PC12 cells. PC12 cells were plated at a density of approximately 100-200/mm^2 on collagen coated plates or dishes in RPMI medium supplemented with 10% horse serum, 5% fetal calf serum, […] streptomycin, 50 U/mL penicillin in a water saturated atmosphere of 95% air and 5% CO2, at 37° C. overnight. […]
At different time points during the treatment, cells were photographed or fixed with 10% formalin. Morphology was examined after four days of treatment with TOFA or vehicle (DMSO). The number of cells bearing neurites and average length of neurites were determined with the aid of the Bioquant imaging system. […] However, as depicted in Table 6 below, NGF alone induced a 15% increase in the number of cells bearing neurites and these outgrowths reached a mean length of 20 μm . Treatment with NGF and TOFA increased the percentage of cells bearing neurites to 78%. Maximal neurite generation is observed at a concentration of 10 μM TOFA.
[…] At least eighty cells from eight wells were analyzed in each group. The results are shown as the mean±SEM. ^a p<0.01, versus vehicle by Dunnetts test.

C/C=C/C/C=C/CCC(=O)[C@H]1O[C@H]1C(N)=O [Cerulenin]
Fold of Stimulation GR/PPAR ([1]; 0.1 μM, Table 2, 1440 min): 1.03 ± 0.12 fold
Fold of Stimulation GR/PPAR ([1]; 1.0 μM, Table 2): 1.13 ± 0.05 fold
Fold of Stimulation GR/PPAR ([1]; 10.0 μM, Table 2, 1440 min): 0.58 ± 0.11 fold

CCCCCCCC/C=C\CCCCCCCC(=O)O [Oleic Acid, oleic acid]
Fold of stimulation GR/NUC ([2]; 150 μM): 3.42 ± 0.28 fold
Fold of Stimulation GR/PPAR ([3]; 50 μM): 2.87 ± 0.2 fold
Fold of Stimulation GR/PPAR ([3]; 300 μM): 14.69 ± 0.06 fold

CN1CCc2cc(Cl)c(O)cc2C(c2ccccc2)C1 (centres unmarked) [SCH-23390, 8-chloro-2,3,4,5-tetrahydro-3-methyl-5-phenyl-1H-3-benzazepin-7-ol hemimaleate]
Catalepsy Duration [4]: 3.1 ± 1.3 s
Fold of Stimulation GR/NER, Dopamine (50 μM) ([5]; SCH-23390 0.1 μM with dopamine 50 μM): 0.59 ± 0.06 fold
Fold of Stimulation GR/NER, Control ([5]; SCH-23390 0.1 μM): 1.32 ± 0.15 fold
Fold of Stimulation GR/NER, Dopamine (50 μM) ([5]; SCH-23390 1.0 μM with dopamine 50 μM): 0.55 ± 0.09 fold
Fold of Stimulation GR/NER, Control ([5]; SCH-23390 1.0 μM): 1.22 ± 0.11 fold
Fold of Stimulation GR/NER, Dopamine (50 μM) ([5]; SCH-23390 10.0 μM with dopamine 50 μM): 0.83 ± 0.12 fold
Fold of Stimulation GR/NER, Control ([5]; SCH-23390 10.0 μM): 1.64 ± 0.38 fold
Fold of Stimulation GR/NER, Dopamine (50 μM) ([5]; SCH-23390 100 μM with dopamine 50 μM): 2.61 ± 0.86 fold
Fold of Stimulation GR/NER, Control ([5]; SCH-23390 100 μM): 2.38 ± 0.19 fold

CCCCCCCCCCCCCCOc1ccc(C(=O)O)o1 [TOFA, 5-(tetradecyloxy)-2-furan carboxylic acid]
effect of TOFA pretreatment on Haloperidol-induced catalepsy [6]: did not significantly affect; also recorded: unaffected
Fold of Stimulation GR/PPAR ([1]; 0.1 μM, Table 2, 1440 min): 1.04 ± 0.14 fold
Fold of Stimulation GR/PPAR ([1]; 1.0 μM, Table 2): 2.38 ± 0.16 fold
Fold of Stimulation GR/PPAR ([1]; 10.0 μM, Table 2, 1440 min): 4.43 ± 0.23 fold
Fold of Stimulation GR/PPAR ([1]; 100 μM, Table 2, 1440 min): 4.10 ± 0.52 fold
stimulation of luciferase expression, MMTV-luciferase reporter gene only [7]: did not stimulate
stimulation of luciferase expression, reporter under control of the promoter of SV40 [8]: did not stimulate
Fold of stimulation GR/NUC ([2]; 2 μM): 1.95 ± 0.14 fold
Fold of stimulation GR/NUC ([2]; 10 μM): 2.85 ± 0.20 fold
Fold of stimulation GR/NUC ([2]; 50 μM): 3.19 ± 0.20 fold
neurite outgrowth [9]: did not induce neurite outgrowth
Fold of Stimulation GR/PPAR ([3]; 2 μM): 2.89 ± 0.13 fold
Fold of Stimulation GR/PPAR ([3]; 10 μM): 4.08 ± 0.10 fold
Fold of Stimulation GR/PPAR ([3]; 20 μM): 5.75 ± 0.14 fold
